In patent US10016414B2, “Modulation of ubiquitination of synaptic proteins for the treatment of neurodegenerative and psychiatric disorders” (UNIVERSITY OF MASSACHUSETTS, priority 2010, dated 2018):

Experiments:
PSD-95 protein levels = PSD-95 protein levels in acute forebrain slices (immunoblot, normalized to actin); assay type: cell-based, mouse; conditions: roscovitine 10 μM, 45 min; control 100%±15.8%; n=3; p>0.5
Experimental: PSD-95 immunoreactivity was normalized to that of actin and expressed as a percentage of DMSO control.
Brains of adult p35 knockout mice and control littermates were gifts of Dr. Li-Huei Tsai (MIT). Brain lysates were prepared according to Zhang et al., (2008). Briefly, brains (without cerebellum) were first homogenized and lysed in 1% deoxycholate (DOC) lysis buffer (150 mM NaCl, 1% DOC, 50 mM Tris, pH 8.8), to which an equal volume of modified radioimmunoprecipitation assay (RIPA) buffer was added (150 mM NaCl, 1 mM ethylenediaminetetraacetic acid (EDTA), 1% Triton X-100, 0.1% SDS, 50 mM Tris/HCl pH 7.4) (Kalia et al., 2006). […] Protein concentrations of the lysates were determined by Detergent Compatible Protein Assay (Bio-Rad) and lysates (inputs) were analyzed by western blot to determine whether similar amounts of proteins were used in the experiments. […] Western blots were visualized by enhanced chemiluminescence (ECL, Amersham) and immunoreactive bands were digitally scanned and quantified with ImageJ software (NIH). Values were expressed as mean±S.E.M. and statistically compared using Student's t-test.
Acute forebrain slices were prepared as previously described (Patel et al., 2003; Zhang et al., 2008). […] Values were expressed as mean±S.E.M. and statistically compared using analysis of variance (ANOVA). […]

PSD-95 ubiquitination = PSD-95 ubiquitination in acute forebrain slices (PSD-95 immunoprecipitation, ubiquitin/FK1/FK2 immunoblot); assay type: cell-based, mouse; conditions: roscovitine 10 μM, 45 min, acute mouse forebrain slices
[1] = tested on: colocalization of β-adaptin with PSD-95; experiment: Colocalization of β-adaptin with PSD-95 puncta in cultured hippocampal neurons; assay type: cell-based, rat; conditions: roscovitine 10 μM, 45 min; control 100%±15.6%; n=5; mean±SEM
Experimental: C. […] Representative confocal images from each condition are shown; β-adaptin and PSD-95 (scale bars, 10 μm). […] The number of costained puncta, as a percentage of total number of PSD-95 puncta, is expressed as a percentage of the number for DMSO control.
(§1) Dissociated hippocampal cultures were prepared from E17-E18 rat brains as described previously (Zhang et al., 2008). Hippocampal neurons were plated on coverslips coated with poly-D-lysine and laminin at a density of 6600/cm2 and grown in Neurobasal medium supplemented with B27 and GlutaMax (Invitrogen) for 17-21 days in vitro (DIV). […] Images from each experiment were thresholded using identical values and analyzed by MetaMorph software. The colocalization was expressed as mean±S.E.M. and statistically compared using Student's t-test.
To assess whether PSD-95 monoubiquitination correlates with increased PSD-95 interaction with AP-2 in vivo, p35 knockout mice were analyzed, which have increased PSD-95 monoubiquitination. PSD-95 immunoprecipitated from brain lysates of p35 knockout and wildtype littermates was analyzed by β-adaptin immunoblot (FIG. 4B).

[2] = tested on: colocalization of Mdm2 with PSD-95; experiment: Colocalization of Mdm2 with PSD-95 puncta in cultured hippocampal neurons (immunocytochemistry); assay type: cell-based, rat; conditions: roscovitine 10 μM, 45 min; control 100%±24.8%; n=4; mean±SEM
Experimental: Representative confocal images from each condition are shown; Mdm2 (green) and PSD-95 (red) (scale bars, 10 μm). […] The number of costained puncta, as a percentage of total PSD-95 puncta, are expressed as a percentage of the number for DMSO controls.
as §1
Mdm2 has been identified as the ubiquitin ligase for PSD-95 in ubiquitination assays and in transfected Mdm2 knockout mouse embryonic fibroblasts (Colledge et al., 2003). […] To investigate whether Cdk5 regulates the interaction between Mdm2 and PSD-95, PSD-95 immunoprecipitated from brain lysates was analyzed in p35 knockout mice and wild-type littermates by immunoblotting with an Mdm2 antibody (FIG. 2A). […]

CC[C@H](CO)Nc1nc(NCc2ccccc2)c2ncn(C(C)C)c2n1 [roscovitine]
PSD-95 protein levels (normalized to actin, percentage of DMSO control) (PSD-95 protein levels): 103.7%±18.7%
increase in PSD-95 ubiquitination (PSD-95 ubiquitination): more than 2 fold
kind of PSD-95 ubiquitination (FK2 immunoreactive, FK1 not) (PSD-95 ubiquitination): increases PSD-95 monoubiquitination on multiple lysines
ubiquitination of PSD-95 (ubiquitin immunoreactivity normalized to immunoprecipitated PSD-95, percentage of DMSO control) (PSD-95 ubiquitination; control 100%±54.5%, n=4, mean±SEM): 274.6%±71.6%
puncta positive for both PSD-95 and β-adaptin (percentage of DMSO control) [1]: 192.5%±19%
puncta positive for both PSD-95 and Mdm2 (percentage of DMSO control) [2]: 149%±27.4%
